# Patent US20140123342A1, “Regulation of Stomatal Apertures by Apyrases and Extracellular Nucleotides” (BOARD OF REGENTS, THE UNIVERSITY OF TEXAS SYSTEM, priority 2011, published 2014)
# Tests used:
# Type in all cases: cell-based, Arabidopsis thaliana
# H2O2 in guard cells = test: Detection and quantification of H2O2 (H2DCFDA fluorescence)
# Procedure: (§1) Detection and Quantification of H2O2 and NO: Col-0 plants were grown on soil for 2 to 4 weeks under continuous light at 21° C. Plants were placed in the dark for 24 h to ensure closure and then transferred to the light for 1 h. After 1 h in the light, mature basal leaves were excised and blended in a Waring blender on the low setting for approximately 10 s to isolate epidermal tissues, and the tissues were placed in 3 mL of 30 mM KCl, 10 mM Mes-KOH, pH 6.16 buffer in light for 2 h (Pei et al., 2000; Murata et al., 2001). DAF-2 DA and H2DCFDA were dissolved in DMSO to produce 5 mM and 10 mM stock solutions, respectively, and these were stored at −20° C. in 30 μL, aliquots. Fifty μM H2DCFDA or 15 μM DAF-2 DA was added to the medium in the dark, and after 30 min, 10 μM ABA, 200 μM ATPγS, or buffer (ATP control) was also added to the medium in the dark for 30 min. Peels were then rinsed by decanting the treatment solution and adding 3 mL fresh leaf buffer to the peels. Peels were rinsed twice as described. A peel from each of the three treatments (ABA, ATPγS and buffer) were placed on the same microscope slide and observed sequentially. A second study was staggered 30 to 45 min after the first by loading the H2DCFDA or DAF-2 DA dye to new peels 30 to 45 min after the first round of dye was added. Confocal laser scanning microscopy (CLSM) was performed with a Leica SP2 AOBS confocal microscope (Leica Microsystems, Bannockburn, Ill., USA). Laser power was set at 15%, with an excitation of 488 nm and an emission of 525 nm. A series of 0.5 μm optical sections with average intensity projection along the z axis were collected and made into one 2D image with greater focal depth. All images were obtained with the same software scanning settings including detector gain and laser intensity settings.
# [1] = test system: stomata (guard cells) in epidermal peels; test: Stomatal aperture closure studies, epidermal peels in the light; details: for effect on stomatal aperture: epidermal peels, 1 h
# Procedure: (§2) Stomatal Aperture Studies: Arabidopsis thaliana ecotypes Columbia (Col-0) and Wassilewskija (WS) were used as wild types in this study. Col-0, nia1nia2, atrbohD/F, R2-4A and WS plants were all grown on autoclaved Metro-Mix 200 soil at 22° C. under continuous light. The mutant seeds nia1nia2 nia2-5; CS 2356; Col-0 background) were obtained from Dr. N. M. Crawford (University of California at San Diego) and the mutant seeds atrbohD/F (Col-0 background) were obtained from Dr. J. M. Kwak (University of Maryland). The RNAi mutant apyrase line (R2-4A) is in WS background, so WS ecotype was used as the control wild type for these studies. Leaves from 2 to 3 week old Col-0 plants, or R2-4A and WS plants treated with 4 μM estradiol for 1 week after development of mature basal leaves were used for peel and whole leaf studies. Plants were placed in the dark and watered 24 h before an study. For opening studies, plants were used immediately after 24 h dark treatment and all treatments were done in the dark except for the light treated leaves or peels, thus the control stomata are dark controls. For closure studies, plants were placed in the light 3 h before an study to induce stomatal opening and all treatments were done in the light, thus the control stomata are light controls. For peel studies, epidermal peels were made from the underside of the leaf and treatments were applied to the peels for 1 h. For whole leaf studies, leaves were removed and treatments were applied for 2 h. For each treatment, about 3 or 4 peels collected from different leaves or 3 or 4 different leaves of at least two different plants were floated with the abaxial side up in petri dishes on 3 mL of Arabidopsis leaf buffer consisting of 10 mM KCl, 25 mM MES pH 6.15 (Melotto et al., 2006) and the chemical being tested. For whole leaf studies peels were collected after the treatment.
# (§3) For studies testing the effects of ATPγS, ADPγS, AMPS, RB2, and PPADS (Sigma, St. Louis, Mo., USA) 20 mM stocks were made by dissolving the compounds in de-ionized water. For studies testing the effects of apyrase inhibitors, 7.5 mg/mL of NGXT191 and of inhibitor #13 (Windsor et al., 2002) was dissolved in dimethyl sulfoxide (DMSO) and then applied at a dilution of […] for a final concentration of 0.1% DMSO. ABA (Sigma, St. Louis, Mo., USA) was dissolved in ethanol in 10 mM stocks and then applied at a dilution of 1:1000. The stocks were stored at −20° C. while not in use. The production of the anti-AtAPY1 antibodies used is described by Steinebrunner et al. (2003). The crude immune and pre-immune sera were purified using protein A-Sepharose following the protocol described by Martin (1982) with the slight modification that the buffers used were azide-free. The protein-A purified sera were both used at a 1:1000 dilution in leaf stomatal aperture studies. The concentration of the immune and pre-immune sera, determined by Bradford assay (Bio-Rad), was 10.2 μg/mL and 7.7 μg/mL, respectively.
# (§4) After treatment, photos of stomata were taken using a light microscope at 20×. Stomatal aperture width was measured using the image processing software ImageJ. Typically, photos were taken of 70 to 90 stomata per treatment of which only 50 stomata were measured for each treatment. For each treatment the ratio of closed stomata (width of 0) to open stomata was determined for all stomata imaged and this ratio was maintained in the 50 stomata that were measured for each treatment. Data shown uses apertures determined as width/length, however data in all studies also obtained as width only and generally width/length and width only data are in agreement with each other. Statistical significance of the measurements for the treatments was determined using the Student's t test in Microsoft Excel.
# [2] = test system: stomata (guard cells) in whole leaves; test: Stomatal aperture closure studies, whole leaves in the light; details: for threshold for nucleotide-induced stomatal closure: whole leaf studies, compared with peel studies (150 to 200 μM; not shown)
# Procedure: as §2, §3, §4
# [3] = test system: stomata (guard cells) in epidermal peels; test: Stomatal aperture opening studies, epidermal peels in the dark; details: for effect on stomatal aperture: darkness, 1 h
# Procedure: as §2, §3, §4
# [4] = test system: stomata (guard cells) in whole leaves; test: Stomatal aperture opening studies, whole leaves in the dark; details: whole leaf studies (data not shown)
# Procedure: as §2
# as §3, with “The crude immune and pre-immune sera were purified using protein A-Sepharose following the protocol described by Martin (1982) with the slight modification that the buffers used were azide-free. The protein-A purified sera were both used at a 1:1000 dilution in leaf stomatal aperture studies.” left out
# as §4
# NO in guard cells = test: Detection and quantification of NO (DAF-2 DA fluorescence)
# Procedure: as §1
# [5] = test system: stomata of atrbohD/F mutant leaves; test: Stomatal closing studies with whole leaves of atrbohD/F mutant; details: 200 ATPγS
# Procedure: (§5) Stomatal Aperture Studies: Arabidopsis thaliana ecotypes Columbia (Col-0) and Wassilewskija (WS) were used as wild types in this study. Col-0, nia1nia2, atrbohD/F, R2-4A and WS plants were all grown on autoclaved Metro-Mix 200 soil at 22° C. under continuous light. The mutant seeds nia1nia2 nia2-5; CS 2356; Col-0 background) were obtained from Dr. N. M. Crawford (University of California at San Diego) and the mutant seeds atrbohD/F (Col-0 background) were obtained from Dr. J. M. Kwak (University of Maryland). The RNAi mutant apyrase line (R2-4A) is in WS background, so WS ecotype was used as the control wild type for these studies. […]
# as §4, with “Statistical significance of the measurements for the treatments was determined using the Student's t test in Microsoft Excel.” left out
# [6] = test system: stomata of nia1nia2 mutant leaves; test: Stomatal closing studies with whole leaves of nia1nia2 mutant; details: 200 ATPγS
# Procedure: as §5
# as §4, with “Statistical significance of the measurements for the treatments was determined using the Student's t test in Microsoft Excel.” left out
# [7] = test system: guard cells of x-luc1 and x-luc9 ecto-luciferase lines; test: Ecto-luciferase luminescence imaging of extracellular ATP in epidermal peels
# Description: Ecto-luciferase Construct and Plant Transformation: The nucleotide sequence for the 24 amino acid, cleavable signal peptide from the Brassica pollen coat protein, S-locus cysteine-rich protein (SCR13; AF195626) was used to target luciferase for secretion (Schopfer et al., 1999). The signal peptide was incorporated at the N-terminus of the luciferase gene by PCR and the SCR13 signal peptide modified luciferase PCR product was then ligated into the binary vector pLBJ21. This construct was then transformed into Agrobacterium tumefaciens strain GV3101 (pMP90) and then transformed into Arabidopsis plants (Col-0) using the floral dipping method (Clough and Bent, 1998). Transgenic plants were selected by planting on solidified Murashige and Skoog (MS) medium (4.3 g/L Murashige and Skoog salts (Sigma), 0.5% (w/v) MES, and 1.0% (w/v) agar, raised to pH 5.7 with 5 M KOH) containing 50 μg/mL kanamycin. Segregation of T3 generation on kanamycin plates was analysed in order to obtain homozygous lines. Plants showing kanamycin resistance were checked for luciferase activity by growing transgenic plants in MS medium for 10 days and then transferring the whole seedlings into test tubes. Luminescence measurements were performed by placing the test tubes in the light-tight housing of the luminometer reader (Dynatech). Experimental solutions with luciferin substrate with and without 1 mM ATP were injected by an automatic injector, and after 3 seconds counting started at 0.2 second time intervals.
# Imaging of Luminescence in Ecto-luciferase Plants: Ecto-luciferase seeds were surface-sterilized, stratified in the dark in 4° C. for at least three days and then planted directly on a cellophane membrane placed upon solidified MS with 1.0% (w/v) agar. Planted plates were placed upright in a culture chamber and grown at 23° C. under 24-h fluorescent light for 7 days. Plates were then reoriented so that the solidified MS medium was at the bottom of the plate and the seedling was able to grow up into the empty space of the petri dish. Seedlings were then allowed to mature for up to 4 weeks under identical temperature and light settings. For “dark” studies petri dishes of 3-4 week old plants were placed in a dark chamber for 24 hours prior to use in the studies.
# Mature basal leaves were excised from x-luc1 and x-luc9 plants 3-4 weeks old. Peels were taken and then immediately floated with the abaxial side up in 40 μL, of Arabidopsis leaf buffer on a microscope slide and the chemical being tested in either light or dark conditions depending on the experimental setup. The placing of the peels within their respective solution was considered time zero. Peels were treated for a minimum of 5 minutes before luciferin and flash buffer were added to the solution. […] Luminescence was integrated over 120 seconds, High Gain, Read Out set to slow, using 4×4 pixel binning with Cosmic Suppression on, Background Correction off, and Flatfield Correction off with the filter set to Photo.
# All luminescence analysis was conducted using the indiGO Analysis Software (version 2.0.0.26). All images consisted of a photographic image in grayscale with an overlaid luminescence image in pseudo color. […]
smiles,measurement,setting,value
"CC(=O)N[C@@H](CS)C(=O)O [NAC, N-acetyl-L-cysteine]",effect on ABA- and ATPγS-induced H2DCFDA fluorescence,H2O2 in guard cells; co-incubation (data not shown),blocked
Nc1ncnc2c1ncn2[C@@H]1O[C@H](COP(=O)(O)OP(=O)(O)OP(O)(O)=S)[C@@H](O)[C@H]1O [ATPγS],effect on stomatal aperture,"[1]; 150 μM, light",no statistically significant effect
same,mean stomatal aperture after closure compared with ABA,[1]; 200 μM versus 10 μM ABA,statistically the same as the aperture induced by treatment with 10 μM ABA
same,effect on stomatal aperture,"[1]; 200 μM, light",induced stomatal closure
same,effect on stomatal aperture,"[1]; 250 μM, light",induced stomatal closure
same,effect on stomatal aperture,"[2]; 200 μM, leaves, light, 2 h",induced stomatal closure
same,threshold for nucleotide-induced stomatal closure,[2],same threshold
same,effect on stomatal aperture,[3]; 5 μM,induced opening
same,effect on stomatal aperture,[3]; 15 μM,induced opening
same,mean stomatal aperture compared with light treatment,[3]; low concentrations (5 and 15 μM),smaller than the aperture induced by light treatment
same,threshold concentration for stomatal opening,[4],higher than 5 μM
same,increase in H2DCFDA fluorescence in guard cells,"H2O2 in guard cells; 200 μM, leaf epidermal tissue, after 30 min",3 fold
same,increase in DAF-2 DA fluorescence in guard cells,"NO in guard cells; 200 μM, leaf epidermal tissue, after 45 min",2.5 fold
same,effect on stomatal aperture,[5],no effect on stomatal aperture
same,effect on stomatal aperture,[6],no effect on stomatal aperture
Nc1ncnc2c1ncn2[C@@H]1O[C@H](COP(=O)(O)OP(=O)(O)OP(=O)(O)O)[C@@H](O)[C@H]1O [ATP],"ecto-luciferase luminescence, average","[7]; 1 mM, 5 min or longer, x-luc1 and x-luc9 lines, centered around guard cells",4.75 counts per second (cps)
same,"ecto-luciferase luminescence of pavement cells, average","[7]; 1 mM, pavement cells of the epidermis",1.35 cps
CC1(C)N([O])C(c2ccc(C(=O)O)cc2)=[N+]([O-])C1(C)C [cPTIO],effect on ABA- and ATPγS-induced DAF-2 DA fluorescence,NO in guard cells; co-incubation (data not shown),blocked
Nc1ncnc2c1ncn2[C@@H]1O[C@H](COP(=O)(O)OP(O)(O)=S)[C@@H](O)[C@H]1O [ADPβS],threshold for nucleotide-induced stomatal closure,"[1]; epidermal peel studies, light",same threshold
same,threshold for nucleotide-induced stomatal closure,[2],the same as found in the peel studies
same,"ecto-luciferase luminescence of stomata, average","[7]; 200 μM, 5 min, open stomata (data not shown)",2.75 cps
